Where “and” joins values, the source holds several entries; their conditions need not be identical. Equal entries are not always repeated. Entries after “also recorded” stand apart in the source; their conditions may differ.
System: Scn1a+/- heterozygous knockout mice ([129xB]F1.Scn1a+/-), heat-induced seizures
Assay: Hyperthermia-induced seizure study in Scn1a+/- heterozygous knockout mice
Assay type: in vivo, mouse
Parameters: Temp Change: unit not given here
Details: for amount of seizures relative to administration of vehicle: Table 10 summary; for performance compared with the clobazam positive control: clobazam 10 mg/kg; for efficacy at preventing heat-induced seizures: summary of the seizure study, FIG. 13
From the text: Reason for selection of species: The Scn1a^+/− knockout mouse ([129xB]F1. Scn1a^+/−) is a model subject of DS with a high translational value.
Between P14 and 16, Scn1a^+/− heterozygous knockout mice are randomly assigned to treatment groups (n=7 males, 7 females/treatment group). The Scn1a^+/− knockout mouse model was chosen because it is an art accepted animal model for epileptic conditions, including for Dravet Syndrome. Treatments are GABAA receptor modulator 1 (“Compound 1” as a phosphate salt at 0.1, 0.3, 1.0 mg/kg), GABAA receptor modulator 2 (“Compound 2” at 3, 10, 30, 100 mg/kg), vehicle, or Clobazam (“CBZ”) (10 mg/kg; positive control).
The GABAA receptor modulators were administered intraperitoneally (i.p.) using a 0.5 or 1-ml plastic syringe fitted with a 27 or 30 gauge 0.5″-long beveled needle.
Animals received 10 mL of formulation per kg of body weight as measured on the day of experiment.
In order to verify the dose concentration, mice were dosed with a test article or control and placed into individual housing cages. A temperature probe was gently inserted into the mouse's rectum and secured by taping the probe's wire to the mouse's tail with the tag end on the mouse's dorsal side. For each group, the insertion of the probe was as follows: • a. For mice administered CBZ, five (5) mins passed before insertion of the probe in order to allow 20-30 min pretreatment time when the state of hyperthermia reached. • b. For mice administered Compound 1, thirty-five (35) mins passed before insertion of the probe in order to allow 50-60 min pretreatment time when the state of hyperthermia is reached. • c. For mice administered […], five (5) mins passed before insertion of the probe in order to allow 20-30 min pretreatment time when the state of hyperthermia reached.
Each mouse was allowed to acclimate to the temperature probe for five (5) minutes before recording the baseline temperature. FIGS. 1-3 depict the starting temperatures of the female mice, the male mice, and the average starting temperatures of all mice prior to inducing the heat-induced seizures.
FIGS. 4-6 depict the final core body temperature of the female mice, the male mice, and the average final core body temperature of all mice after heating. FIGS. 7-9 illustrate the total temperature change for the female mice, the male mice, and average of all mice; while FIGS. 10-12 depict the average temperature change per minute for the female mice, the male mice, and average of all mice. The mouse's body temperature was maintained at 42.5° C. for 3 mins. If no seizure occurred, the mouse was considered seizure-free.

[1] = Clobazam 10 mg/kg i.p., 30 minute pretreatment, individual animals, female mice
[2] = Clobazam 10 mg/kg i.p., 30 minute pretreatment, individual animals, male mice
[3] = 0.1 mg/kg i.p., 60 minute pretreatment, individual animals, female mice
[4] = 0.1 mg/kg i.p., 60 minute pretreatment, individual animals, male mice
[5] = 0.3 mg/kg i.p., 60 minute pretreatment, individual animals, female mice
[6] = 0.3 mg/kg i.p., 60 minute pretreatment, individual animals, male mice
[7] = 3 mg/kg i.p., 30 minute pretreatment, individual animals, female mice
[8] = 3 mg/kg i.p., 30 minute pretreatment, individual animals, male mice
[9] = Compound 2 30 mg/kg, 30 minute pretreatment, individual animals, female mice
[10] = Compound 2 30 mg/kg, 30 minute pretreatment, individual animals, male mice
[11] = Compound 2 100 mg/kg, 30 minute pretreatment, individual animals, female mice
[12] = Compound 2 100 mg/kg, 30 minute pretreatment, individual animals, male mice

SMILES: CN1C(=O)CC(=O)N(c2ccccc2)c2cc(Cl)ccc21 [Clobazam, reference compound]
- Total With No Seizure (Clobazam 10 mg/kg i.p., 30 minute pretreatment): 38%
- End Temp [1]: 42.3 °C and 42 °C and 42.2 °C and 42.7 °C (2×) and 42.6 °C (4×) and 42.5 °C (2×) and 42.9 °C
- Observations [1]: Tonic-clonic, squeek; also recorded: seizure free, 3 min hold; also recorded: Tonic-clonic on the onset; also recorded: Tonic-clonic, HLE
- End Temp [2]: 41.9 °C and 42.6 °C (2×) and 42.5 °C (3×) and 42.9 °C and 42.8 °C and 41.8 °C and 42 °C and 41.7 °C and 42.1 °C
- Observations [2]: seizure free, 3 min hold; also recorded: Tonic-clonic seizure; also recorded: Tonic-clonic seizure,; also recorded: Tonic-clonic, squeek; also recorded: Tonic-clonic on the onset
- End Temperature (summary, 10 mg/kg (n = 24)): 42.42 °C
- Seizure free % (summary, 10 mg/kg (n = 24)): 38%
- Temp Change (summary, 10 mg/kg (n = 24)): 7.60
- Temp Change/min (summary, 10 mg/kg (n = 24)): 0.53

SMILES: CC(C)(O)c1cnn2c(-c3ccc(F)c(-c4c(F)cccc4C#N)c3)cnc2n1 [Compound 1]
- Total With No Seizure (0.1 mg/kg i.p., 60 minute pretreatment): 6%
- End Temp [3]: 41.9 °C and 41.8 °C and 41.6 °C and 42 °C and 41.7 °C and 42.8 °C and 41.4 °C and 41.2 °C
- Observations [3]: Tonic-clonic, squeek; also recorded: Seizure free, 3 min hold
- End Temp [4]: 42.6 °C and 41.8 °C and 40.8 °C and 42 °C and 42.1 °C and 41.5 °C and 42.2 °C and 41.6 °C
- Observations [4]: Tonic-clonic, seizure; also recorded: Tonic-clonic, squeek
- Total With No Seizure (0.3 mg/kg i.p., 60 minute pretreatment): 33%
- End Temp [5]: 41.7 °C and 41.4 °C and 42.3 °C (2×) and 42.5 °C and 42.8 °C and 42.1 °C and 42.2 °C and 42.7 °C
- Observations [5]: Tobic-clonic, squeek, HLE; also recorded: Seizure free, 3 min hold; also recorded: tonic-clonic, squeek, HLE
- End Temp [6]: 41.4 °C and 42.4 °C (2×) and 42.8 °C and 41.9 °C and 42.2 °C and 42.6 °C (2×) and 43 °C
- Observations [6]: Tonic,-clonic, squeek; also recorded: Tonic-clonic, squeek; also recorded: Seizure free, 3 min hold
- Total With No Seizure (1.0 mg/kg i.p., 60 minute pretreatment): 36%
- Observations (1.0 mg/kg i.p., 60 minute pretreatment, individual animals): Tonic-clonic seizure,; also recorded: seizure free, 3 min hold; also recorded: Tonic-clonic seizure; also recorded: Tonic-clonic, Squeek
- End Temp (1.0 mg/kg i.p., 60 minute pretreatment, individual animals, female mice): 42.2 °C (2×) and 42.8 °C (2×) and 42.4 °C and 42.5 °C (3×) and 42.3 °C and 42.9 °C and 42.1 °C
- End Temp (1.0 mg/kg i.p., 60 minute pretreatment, individual animals, male mice): 41.9 °C and 42.5 °C (2×) and 42.9 °C and 42.3 °C and 42.2 °C and 42.8 °C (2×) and 41.5 °C and 41.3 °C and 42.6 °C
- amount of seizures relative to administration of vehicle: reduced the amount of seizures
- performance compared with the clobazam positive control: performed at least as well as the clobazam positive control
- efficacy at preventing heat-induced seizures: effective at preventing heat-induced seizures
- End Temperature (summary, 0.1 mg/kg (n = 16)): 41.81 °C
- Seizure free % (summary, 0.1 mg/kg (n = 16)): 6%
- Temp Change (summary, 0.1 mg/kg (n = 16)): 6.66
- Temp Change/min (summary, 0.1 mg/kg (n = 16)): 0.52
- End Temperature (summary, 0.3 mg/kg (n = 18)): 42.29 °C
- Seizure free % (summary, 0.3 mg/kg (n = 18)): 33%
- Temp Change (summary, 0.3 mg/kg (n = 18)): 7.15
- Temp Change/min (summary, 0.3 mg/kg (n = 18)): 0.48
- End Temperature (summary, 1.0 mg/kg (n = 22)): 42.39 °C
- Seizure free % (summary, 1.0 mg/kg (n = 22)): 36%
- Temp Change (summary, 1.0 mg/kg (n = 22)): 7.05
- Temp Change/min (summary, 1.0 mg/kg (n = 22)): 0.46

SMILES: C#Cc1ccc2c(c1)C(c1ccccn1)=NCc1c(-c3nc(CC)no3)ncn1-2 [Compound 2]
- Total With No Seizure (3 mg/kg i.p., 30 minute pretreatment): 7%
- End Temp [7]: 42.6 °C and 41.8 °C and 41.7 °C (2×) and 42.2 °C and 42.4 °C and 41.4 °C
- Observations [7]: Seizure free, 3 min hold; also recorded: Tonic-clonic, squeek
- End Temp [8]: 41.3 °C (2×) and 41.7 °C and 42.1 °C and 41.8 °C and 42 °C and 42.5 °C
- Observations [8]: Tonic-clonic, squeek; also recorded: Tonic-clonic on the onset
- prevention of seizures (100 mg/kg dose, n=8): completely preventing seizures in each animal
- dose dependence of seizure prevention (3, 10, 30, 100 mg/kg): prevented seizures in a dose-dependent fashion
- Total With No Seizure (Compound 2 10 mg/kg i.p., 30 minute pretreatment): 50%
- Observations (Compound 2 10 mg/kg i.p., 30 minute pretreatment, individual animals): Tonic-clonic, squeek
- End Temp (Compound 2 10 mg/kg i.p., 30 minute pretreatment, individual animals, female mice): 42.7 °C (2×) and 42.8 °C (2×) and 42.6 °C and 42.1 °C and 42.5 °C
- End Temp (Compound 2 10 mg/kg i.p., 30 minute pretreatment, individual animals, male mice): 42.5 °C (3×) and 42.8 °C and 42 °C and 40 °C and 42.7 °C
- Total With No Seizure (Compound 2 30 mg/kg, 30 minute pretreatment): 73%
- End Temp [9]: 42.5 °C and 41.5 °C and 42.8 °C (2×) and 42.7 °C (3×) and 42.6 °C
- Observations [9]: seizure free, 3 min hold; also recorded: Tonic-clonic seizure
- Temp Change [9]: 9.1 and 5.3 and 6.3 and 6.2 and 7.9 and 7.2 and 6.6 and 7.4
- Temp Change/min [9]: 0.51 and 0.48 (2×) and 0.41 and 0.46 and 0.55 and 0.39 and 0.35
- End Temp [10]: 42.5 °C and 42.8 °C and 42.6 °C and 43 °C and 42.7 °C (2×) and 41.6 °C
- Observations [10]: Tonic-clonic, squeek; also recorded: Seizure free, 3 min hold
- Temp Change [10]: 7.3 and 6.8 and 7.8 and 7.5 (2×) and 9.6 and 7
- Temp Change/min [10]: 0.66 and 0.49 and 0.41 and 0.54 and 0.53 and 0.50 and 0.63
- Total With No Seizure (Compound 2 100 mg/kg, 30 minute pretreatment): 100%
- End Temp [11]: 42.9 °C and 42.7 °C (2×) and 42.5 °C
- Observations [11]: Seizure free, 3 min hold
- Temp Change [11]: 8.2 and 7.4 and 7.7 and 8.5
- Temp Change/min [11]: 0.59 and 0.53 and 0.33 and 0.50
- End Temp [12]: 42.6 °C (2×) and 42.7 °C and 42.5 °C
- Observations [12]: Seizure free, 3 min hold
- Temp Change [12]: 7.4 and 7.2 and 9.7 and 7.7
- Temp Change/min [12]: 0.31 and 0.36 and 0.54 and 0.29
- amount of seizures relative to administration of vehicle: reduced the amount of seizures
- performance compared with the clobazam positive control: performed at least as well as the clobazam positive control
- efficacy at preventing heat-induced seizures: effective at preventing heat-induced seizures
- End Temperature (summary, 3 mg/kg (n = 14)): 41.89 °C
- Seizure free % (summary, 3 mg/kg (n = 14)): 7%
- Temp Change (summary, 3 mg/kg (n = 14)): 6.61
- Temp Change/min (summary, 3 mg/kg (n = 14)): 0.45
- End Temperature (summary, 10 mg/kg (n = 14)): 42.37 °C
- Seizure free % (summary, 10 mg/kg (n = 14)): 50%
- Temp Change (summary, 10 mg/kg (n = 14)): 7.09
- Temp Change/min (summary, 10 mg/kg (n = 14)): 0.47
- End Temperature (summary, 30 mg/kg (n = 15)): 42.55 °C
- Seizure free % (summary, 30 mg/kg (n = 15)): 73%
- Temp Change (summary, 30 mg/kg (n = 15)): 7.30
- Temp Change/min (summary, 30 mg/kg (n = 15)): 0.49
- End Temperature (summary, 100 mg/kg (n = 8)): 42.60 °C
- Seizure free % (summary, 100 mg/kg (n = 8)): 100%
- Temp Change (summary, 100 mg/kg (n = 8)): 8.00
- Temp Change/min (summary, 100 mg/kg (n = 8)): 0.37
